According to patent US7317007B2, “Benzothiazole derivatives with activity as adenosine receptor ligands” (Hoffmann-La Roche Inc., priority 2000, dated 2008):
Structures can show the parent of a compound that is named as a salt. Where two headings read alike, the source gives them in different places.

Biological target: T1, human adenosine A2A receptor (Homo sapiens, UniProt P29274)
T1 construct: expressed in transfected cells; host or cells: CHO cells, Semliki Forest virus expression system; washed membrane pellet used
Assay: [3H]-SCH-58261 binding assay at the human adenosine A2A receptor
Protocol: Human Adenosine A2A Receptor
The human adenosine A2A receptor was recombinantly expressed in chinese hamster ovary (CHO) cells using the semliki forest virus expression system. Cells were harvested, washed twice by centrifugation, homogenised and again washed by centrifugation. The final washed membrane pellet was suspended in a Tris (50 mM) buffer containing 120 mM NaCl, 5 mM KCl, 2 mM CaCl2 and 10 mM MgCl2 (pH 7.4) (buffer A). The [^3H]-SCH-58261 (Dionisotti et al., 1997, Br J Pharmacol 121, 353; 1 nM) binding assay was carried out in 96-well plates in the presence of 2.5 μg of membrane protein, 0.5 mg of Ysi-poly-1-lysine SPA beads and 0.1 U adenosine deaminase in a final volume of 200 μl of buffer A. Non-specific binding was defined using xanthine amine congener (XAC; 2 μM). Compounds were tested at 10 concentrations from 10 μM-0.3 nM. All assays were conducted in duplicate and repeated at least two times. Assay plates were incubated for 1 hour at room temperature before centrifugation and then bound ligand determined using a Packard Topcount scintillation counter. IC50 values were calculated using a non-linear curve fitting program and Ki values calculated using the Cheng-Prussoff equation.

[1] = read-out: pKi value (converted)

T1 sequence (P29274 whole entry): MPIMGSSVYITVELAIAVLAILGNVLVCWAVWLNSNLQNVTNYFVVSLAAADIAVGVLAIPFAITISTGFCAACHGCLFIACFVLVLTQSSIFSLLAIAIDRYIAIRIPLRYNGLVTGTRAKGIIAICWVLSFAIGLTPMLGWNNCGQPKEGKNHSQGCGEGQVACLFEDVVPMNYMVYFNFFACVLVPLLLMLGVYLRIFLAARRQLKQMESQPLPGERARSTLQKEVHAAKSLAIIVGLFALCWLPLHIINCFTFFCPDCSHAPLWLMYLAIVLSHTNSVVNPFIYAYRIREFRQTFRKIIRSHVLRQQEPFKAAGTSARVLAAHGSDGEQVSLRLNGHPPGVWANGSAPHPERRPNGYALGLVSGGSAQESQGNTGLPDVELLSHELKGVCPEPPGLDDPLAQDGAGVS

SMILES | Ki [1] [nM] | Ki [nM]
COCc1ccc(C(=O)Nc2nc3c(OC)ccc(N4CCOCC4)c3s2)cc1 [Example 315, 4-Methoxymethyl-N-(4-methoxy-7-morpholin-4-yl-benzothiazol-2-yl)-benzamide] | 2.51 | 
COc1ccc(N2CCOCC2)c2sc(NC(=O)c3ccc(CN4CCN(C)CC4)cc3)nc12 [Example 309, N-(4-Methoxy-7-morpholin-4-yl-benzothiazol-2-yl)-4-(4-methyl-piperazin-1-yl-methyl)-benzamide] | 3.16 | 
COCCNCc1cc(C(=O)Nc2nc3c(OC)ccc(N4CCOCC4)c3s2)ccc1Cl [Example 282, 4-Chloro-3-[(2-methoxy-ethylamino)-methyl]-N-(4-methoxy-7-morpholin-4-yl-benzothiazol-2-yl)-benzamide] | 2.51 | 
COc1ccc(N2CCOCC2)c2sc(NC(=O)c3ccc(Cl)c(CN4CCCC4)c3)nc12 [Example 283, 4-Chloro-N-(4-methoxy-7-morpholin-4-yl-benzothiazol-2-yl)-3-pyrrolidin-1-ylmethyl-benzamide] | 1 | 
COC(=O)Nc1nc2c(OC)ccc(-c3csc(-c4ccc(C)nc4)n3)c2s1 [Example 201, {4-Methoxy-7-[2-(6-methyl-pyridin-3-yl)-thiazol-4-yl]-benzothiazol-2-yl}-carbamic acid methyl ester] | 2.51 | 
COc1ccc(-c2ccccc2)c2sc(NC(=O)c3ccc(CNCc4ccncc4)cc3)nc12 [Example 96, N-(4-Methoxy-7-phenyl-benzothiazol-2-yl)-4-{[(pyridin-4-ylmethyl)-amino]-methyl}-benzamide hydrochloride salt (1:2)] | 1.58 | 
COc1ccc(-c2csc(-c3ccc(C)nc3)n2)c2sc(NC(=O)N3CCOCC3)nc12 [Example 258] | 1.26 | 
COc1ccc(-c2ccccc2)c2sc(NC(=O)c3ccc(CNCCO)cc3)nc12 [Example 92, 4-[(2-Hydroxy-ethylamino)-methyl]-N-(4-methoxy-7-phenyl-benzothiazol-2-yl)-benzamide hydrochloride salt (1:1)] | 1.26 | 
COCCOCc1ccc(C(=O)Nc2nc3c(OC)ccc(N4CCOCC4)c3s2)cc1 [Example 314, 4-(2-Methoxy-ethoxymethyl)-N-(4-methoxy-7-morpholin-4-yl-benzothiazol-2-yl)-benzamide] | 3.16 | 
COc1ccc(N2CCSCC2)c2sc(NC(=O)c3ccccc3)nc12 [Example 317, N-(4-Methoxy-7-thiomorpholin-4-yl-benzothiazol-2-yl)-benzamide] | 2.51 | 
COCCNCc1cccc(C(=O)Nc2nc3c(OC)ccc(N4CCOCC4)c3s2)c1 [Example 286] | 1.58 | 
COc1ccc(N2CCOCC2)c2sc(NC(=O)N3CCC(=O)CC3)nc12 [Example 342, 4-Oxo-piperidine-1-carboxylic acid (4-methoxy-7-morpholin-4-yl-benzothiazol-2-yl)-amide] |  | 3.16
COc1ccc(-c2ccccc2)c2sc(NC(=O)c3ccc(CN4CC[C@H](N(C)C)C4)cc3)nc12 [Example 125, 4-(3 (S)-Dimethylamino-pyrrolidin-1-ylmethyl)-N-(4-methoxy-7-phenyl-benzothiazol-2-yl)-benzamide hydrochlorde salt (1:2)] | 1 | 
COCCN(C)Cc1cccc(C(=O)Nc2nc3c(OC)ccc(N4CCOCC4)c3s2)c1 [Example 287, 3-{[(2-Methoxy-ethyl)-methyl-amino]-methyl}-N-(4-methoxy-7-morpholin-4-yl-benzothiazol-2-yl)-benzamide] | 3.16 | 
COc1ccc(N2CCOCC2)c2sc(NC(=O)c3cccc(CN4CCCC4)c3)nc12 [Example 289, N-(4-Methoxy-7-morpholin-4-yl-benzothiazol-2-yl)-3-pyrrolidin-1-ylmethyl-benzamide] | 1.26 | 
COc1ccc(N2CCOCC2)c2sc(NC(=O)c3ccc(CSCCN(C)C)cc3)nc12 [Example 298, 4-(2-Dimethylamino-ethylsulfanylmethyl)-N-(4-methoxy-7-morpholin-4-yl-benzothiazol-2-yl)-benzamide] | 2 | 
COc1ccc(-c2ccccc2)c2sc(NC(=O)c3ccncc3)nc12 [Example 36, N-(4-Methoxy-7-phenyl-benzothiazol-2-yl)-isonicotinamide] | 0.794 | 
COc1ccc(-c2ccnc(C)c2)c2sc(NC(=O)c3ccc(C)s3)nc12 [Example 61, 5-Methyl-thiophene-2-carboxylic acid [4-methoxy-7-(2-methyl-pyridin-4-yl)-benzothiazol-2-yl]-amide] | 1.26 | 
COc1ccc(N2CCOCC2)c2sc(NC(=O)c3ccc(F)cc3)nc12 [Example 275, 4-Fluoro-N-(4-methoxy-7-morpholin-4-yl-benzothiazol-2-yl)-benzamide] | 2 | 

SMILES | Ki [1] [nM] | Ki [nM]
COc1ccc(N2CCOCC2)c2sc(NC(=O)c3ccc(C(F)(F)F)cc3)nc12 [Example 271, N-(4-Methoxy-7-morpholin-4-yl-benzothiazol-2-yl)-4-trifluoromethyl-benzamide] | 2.51 | 
CCOCCN(CC)Cc1ccc(C(=O)Nc2nc3c(OC)ccc(N4CCOCC4)c3s2)cc1 [Example 301, 4-{[(2-Ethoxy-ethyl)-ethyl-amino]-methyl}-N-(4-methoxy-7-morpholin-4-yl-benzothiazol-2-yl)-benzamide] | 3.16 | 
COc1ccc(N2CCOCC2)c2sc(NC(=O)c3ccc(Cn4ccnc4C)cc3)nc12 [Example 308, N-(4-Methoxy-7-morpholin-4-yl-benzothiazol-2-yl)-4-(2-methyl-imidazol-1-yl-methyl)-benzamide] | 0.794 | 
COc1ccc(N2CCOCC2)c2sc(NC(=O)C3CCN(C(=O)OC(C)(C)C)CC3)nc12 [Example 326, 4-(4-Methoxy-7-morpholin-4-yl-benzothiazol-2-ylcarbamoyl)-piperidine-1-carboxylic acid tert-butyl ester] | 3.16 | 
COc1ccc(N2CCOCC2)c2sc(NC(=O)c3ccccc3)nc12 [Example 277, N-(4-Methoxy-7-morpholin-4-yl-benzothiazol-2-yl)-benzamide] | 2 | 
COc1ccc(-c2ccccc2)c2sc(NC(=O)c3ccc(CN)cc3)nc12 [Example 121, 4-Aminomethyl-N-(4-methoxy-7-phenyl-benzothiazol-2-yl)-benzamide hydrochloride salt (1:1)] | 1 | 
COc1ccc(-c2ccccc2)c2sc(NC(=O)c3ccc(C)s3)nc12 [Example 3, 5-Methyl-thiophene-2-carboxylic acid (4-methoxy-7-phenyl-benzothiazol-2-yl)-amide] | 1.58 | 
COc1ccc(-c2cccc(N)c2)c2sc(NC(=O)c3ccc(C)s3)nc12 [Example 62, 5-Methyl-thiophene-2-carboxylic acid [7-(3-amino-phenyl)-4-methoxy-benzothiazol-2-yl]-amide] | 0.794 | 
COc1ccc(-c2ccccc2)c2sc(NC(=O)c3ccc(F)cc3)nc12 [Example 23, 4-Fluoro-N-(4-methoxy-7-phenyl-benzothiazol-2-yl)-benzamide] | 1.26 | 
COCCNCc1ccc(C(=O)Nc2nc3c(OC)ccc(-c4ccccc4)c3s2)cc1 [Example 91, 4-[(2-Methoxy-ethylamino)-methyl]-N-(4-methoxy-7-phenyl-benzothiazol-2-yl)-benzamide hydrochloride salt (1:1)] | 1.58 | 
CCOCCN(C)Cc1ccc(C(=O)Nc2nc3c(OC)ccc(N4CCOCC4)c3s2)cc1 [Example 304, 4-{[(2-Ethoxy-ethyl)-methyl-amino]-methyl}-N-(4-methoxy-7-morpholin-4-yl-benzothiazol-2-yl)-benzamide] | 3.16 | 
CCN(CCOC)Cc1cc(C(=O)Nc2nc3c(OC)ccc(N4CCOCC4)c3s2)ccc1Cl [Example 278, 4-Chloro-3-{[ethyl-(2-methoxy-ethyl)-amino]-methyl}-N-(4-methoxy-7-morpholin-4-yl-benzothiazol-2-yl)-benzamide] | 3.16 | 
COc1ccc(-c2ccccc2)c2sc(NC(=O)c3ccc(C)o3)nc12 [Example 10, 5-Methyl-furan-2-carboxylic acid (4-methoxy-7-phenyl-benzothiazol-2-yl)-amide] | 1 | 
COc1ccc(-c2ccccc2)c2sc(NC(=O)c3ccc(CNCc4cccnc4)cc3)nc12 [Example 107, N-(4-Methoxy-7-phenyl-benzothiazol-2-yl)-4-{[(pyridin-3-ylmethyl)-amino]-methyl}-benzamide hydrochloride salt (1:2)] | 1.58 | 
COc1ccc(-c2ccccc2)c2sc(NC(=O)c3ccc(CO)cc3)nc12 [Example 17, 4-Hydroxymethyl-N-(4-methoxy-7-phenyl-benzothiazol-2-yl)-benzamide] | 0.501 | 
COc1ccc(-c2ccccc2)c2sc(NC(=O)N3CCOCC3)nc12 [Example 157, Morpholine-4-carboxylic acid (4-methoxy-7-phenyl-benzothiazol-2-yl)-amide] | 1.26 | 
CNCc1cccc(C(=O)Nc2nc3c(OC)ccc(N4CCOCC4)c3s2)c1 [Example 279, N-(4-Methoxy-7-morpholin-4-yl-benzothiazol-2-yl)-3-methylaminomethyl-benzamide] | 1.58 | 
COc1ccc(N2CCOCC2)c2sc(NC(=O)C3CCN(C(C)=O)CC3)nc12 [Example 327, 1-Acetyl-piperidine-4-carboxylic acid (4-methoxy-7-morpholin-4-yl-benzothiazol-2-yl)-amide] | 3.16 | 
